Laboratory results reported in the supplement of paper PMC13380429.

Key:
Settings in all cases: 72 h
[1] = test system: Calu-3; experiment: cell viability relative to DMSO; higher = less toxic
[2] = test system: Caco-2; experiment: as above
[3] = test system: HepG2; experiment: as above
[4] = test system: Calu-3; experiment: drug sensitivity score (DSS) for viability; higher = more toxic; extreme values may be limits of the assay
[5] = test system: Caco-2; experiment: as above
[6] = test system: HepG2; experiment: as above
[7] = test system: Calu-3; experiment: relative viability EC50 (midpoint between 100% and the lowest measured viability); higher = less toxic
[8] = test system: Caco-2; experiment: as above
[9] = test system: HepG2; experiment: as above
[10] = test system: Vero E6; experiment: drug sensitivity score (DSS) for viability; higher = more toxic; extreme values may be limits of the assay
[11] = test system: U2OS; experiment: as above
[12] = test system: Vero E6; experiment: cell viability relative to DMSO; higher = less toxic
[13] = test system: U2OS; experiment: as above
[14] = test system: U2OS; experiment: relative viability EC50 (midpoint between 100% and the lowest measured viability); higher = less toxic

Structure (SMILES) | cell viability ([1]; 1 nM) | cell viability ([1]; 10 nM) | cell viability ([1]; 100 nM) | cell viability ([1]; 1000 nM) | cell viability ([1]; 10000 nM) | cell viability ([2]; 1 nM) | cell viability ([2]; 10 nM) | cell viability ([2]; 100 nM) | cell viability ([2]; 1000 nM) | cell viability ([2]; 10000 nM) | cell viability ([3]; 1 nM) | cell viability ([3]; 10 nM) | cell viability ([3]; 100 nM) | cell viability ([3]; 1000 nM) | cell viability ([3]; 10000 nM) | drug sensitivity score [4] | drug sensitivity score [5] | drug sensitivity score [6] | relative viability EC50 [7] | relative viability EC50 [8] | relative viability EC50 [9] | drug sensitivity score [10] | drug sensitivity score [11] | cell viability ([12]; 1 nM) | cell viability ([12]; 10 nM) | cell viability ([12]; 100 nM) | cell viability ([12]; 1000 nM) | cell viability ([12]; 10000 nM) | cell viability ([13]; 1 nM) | cell viability ([13]; 10 nM) | cell viability ([13]; 100 nM) | cell viability ([13]; 1000 nM) | cell viability ([13]; 10000 nM) | relative viability EC50 [14]
Cc1nc(N)sc1CCN [amthamine] | 98.2% | 97.3% | 105% | 109% | 109% | 96.3% | 95.3% | 87.4% | 92.4% | 96.5% | 104% | 105% | 106% | 122% | 99.4% | 0 | 0 | 0 | > 10 µM | > 10 µM | > 10 µM | – | – | – | – | – | – | – | – | – | – | – | – | –
O=C(CCCl)NCc1ccccc1 [beclamide] | – | – | – | – | – | – | – | – | – | – | – | – | – | – | – | 0 | – | 0 | – | – | – | 0 | 0 | – | – | – | – | – | – | – | – | – | – | –
Cc1c(N)nc([C@H](CC(N)=O)NC[C@H](N)C(N)=O)nc1C(=O)N[C@H](C(=O)N[C@H](C)[C@@H](O)[C@H](C)C(=O)N[C@H](C(=O)NCCc1nc(-c2nc(C(=O)NCCCNCCCCN)cs2)cs1)[C@@H](C)O)[C@@H](O[C@@H]1O[C@@H](CO)[C@@H](O)[C@H](O)[C@@H]1O[C@@H]1O[C@H](CO)[C@@H](O)[C@H](OC(N)=O)[C@@H]1O)c1cnc[nH]1 [bleomycetin] | 94% | 95.4% | 93.1% | 76.5% | 51.3% | 106% | 102% | 100% | 90.9% | 78.7% | 99.4% | 104% | 98.1% | 82.7% | 59.9% | 5.2 | 1.7 | 4 | – | > 10 µM | – | 3.9 | 3.4 | 106% | 103% | 106% | 82.4% | 64.2% | 101% | 97.7% | 99.8% | 83.3% | 68.7% | –
O=C(CCCN1CCC(O)(c2ccc(Br)cc2)CC1)c1ccc(F)cc1 [bromperidol] | – | – | – | – | – | – | – | – | – | – | – | – | – | – | – | 0 | – | 0.8 | – | – | – | 0 | 0 | – | – | – | – | – | – | – | – | – | – | –
Cc1ccc(S(=O)(=O)NCl)cc1 [chloramine-T] | 102% | 107% | 92.2% | 101% | 92.6% | 99.5% | 104% | 92.2% | 101% | 99.2% | 101% | 98.5% | 104% | 102% | 102% | 0 | 0 | 0 | > 10 µM | > 10 µM | > 10 µM | – | 0 | – | – | – | – | – | 105% | 97.7% | 105% | 99.1% | 99.4% | > 10 µM
O=c1ccc2ccccc2o1 [coumarin] | 97.7% | 90.9% | 95.6% | 105% | 88.6% | 96.5% | 97.6% | 99.2% | 95.9% | 95.5% | 91.8% | 107% | 106% | 96.7% | 111% | 0 | 0 | 0 | > 10 µM | > 10 µM | > 10 µM | – | 0 | – | – | – | – | – | 100% | 98.1% | 96.1% | 99.1% | 98.1% | > 10 µM
CN(CC(=O)O)C(=N)N [creatine] | – | – | – | – | – | – | – | – | – | – | – | – | – | – | – | 0 | – | 0 | – | – | – | – | 0 | – | – | – | – | – | – | – | – | – | – | –
CN[C@@H](C)[C@H]1[C@H](O)C[C@@]2(C)[C@@H]3CC[C@H]4C(C)(C)[C@@H](NC)CC[C@@]45C[C@@]35CC[C@]12C [cyclovirobuxin-D] | 102% | 94.7% | 98.6% | 99.2% | 102% | 101% | 92.1% | 91.2% | 90.1% | 90.6% | 96.3% | 99.5% | 91.5% | 99% | 99.1% | 0 | 0 | 0 | > 10 µM | > 10 µM | > 10 µM | – | 0 | – | – | – | – | – | 101% | 96.3% | 99.4% | 99.8% | 97.6% | > 10 µM
CO[C@H]1C[C@H](O[C@H]2[C@H](C)O[C@@H](O[C@@H]3/C(C)=C/C[C@@H]4C[C@@H](C[C@]5(C=C[C@H](C)[C@@H](C6CCCCC6)O5)O4)OC(=O)[C@@H]4C=C(C)[C@@H](O)[C@H]5OC/C(=C\C=C\[C@@H]3C)[C@]54O)C[C@@H]2OC)O[C@@H](C)[C@@H]1O [doramectin] | 102% | 95.4% | 105% | 93.8% | 75% | 102% | 92.9% | 93.9% | 96.8% | 62.5% | 112% | 104% | 98.1% | 108% | 44.9% | 1.8 | 2.3 | 2.5 | > 10 µM | – | 3.76 µM | 1.4 | 3.7 | 103% | 96.3% | 91.1% | 98.1% | 72.4% | 98.1% | 95.7% | 92.6% | 88.5% | 56.6% | –
O=C(O)[C@@H]1C[C@@H](C2CCCCC2)CN1C(=O)CP(=O)(O)CCCCc1ccccc1 [fosinoprilat] | 99.4% | 98.8% | 98.4% | 95.1% | 108% | 97.6% | 88.5% | 105% | 90.4% | 102% | 105% | 104% | 96.2% | 101% | 101% | 0 | 0 | 0 | > 10 µM | > 10 µM | > 10 µM | – | 0 | – | – | – | – | – | 99.6% | 93.7% | 97.5% | 95% | 97.1% | > 10 µM
COc1ccc2c(c1OC)C(=O)O[C@@H]2[C@H]1c2cc3c(cc2CCN1C)OCO3 [hydrastine-(1R,9S)] | – | – | – | – | – | – | – | – | – | – | – | – | – | – | – | 0 | – | 0 | – | – | – | 0 | 0 | – | – | – | – | – | – | – | – | – | – | –
CN1[C@@H]2CC[C@H]1C[C@@H](OC(=O)[C@H](CO)c1ccccc1)C2 [hyoscyamine] | 103% | 91.6% | 99.9% | 97.2% | 99.4% | 103% | 99.8% | 95% | 94.2% | 89.6% | 111% | 98.2% | 106% | 89.3% | 104% | 0 | 0 | 0 | > 10 µM | > 10 µM | > 10 µM | – | 0 | – | – | – | – | – | 98.9% | 101% | 97.8% | 101% | 99.9% | > 10 µM
COC(=O)C1=C(C)NC(C)=C(C(=O)OC(C)C)[C@@H]1c1cccc2nonc12 [isradipine] | 101% | 98.9% | 91.7% | 97.9% | 95.2% | 107% | 96.2% | 99.3% | 93.5% | 94.2% | 98.9% | 103% | 105% | 106% | 95.9% | 0 | 0 | 0 | > 10 µM | > 10 µM | > 10 µM | – | 0 | – | – | – | – | – | 103% | 97.9% | 104% | 102% | 98.5% | > 10 µM
C=C(C)[C@H]1CN[C@H](C(=O)O)[C@H]1CC(=O)O [kainic-acid] | 93.4% | 88.2% | 93.5% | 90.3% | 98.3% | 97.5% | 95.7% | 96.7% | 104% | 96.8% | 106% | 105% | 110% | 102% | 93.7% | 0 | 0 | 0 | > 10 µM | > 10 µM | > 10 µM | – | 0 | – | – | – | – | – | 99.7% | 99.4% | 101% | 99.8% | 95.6% | > 10 µM
C[N+]1(C)[C@@H]2C[C@@H](OC(=O)[C@H](CO)c3ccccc3)C[C@H]1[C@@H]1O[C@@H]12 [methscopolamine] | – | – | – | – | – | – | – | – | – | – | – | – | – | – | – | 0 | – | 0 | – | – | – | 0 | 0 | – | – | – | – | – | – | – | – | – | – | –
Cc1ccc(-n2nc(C(C)(C)C)cc2NC(=O)NCc2cc(F)ccc2Oc2ccc3c(cnn3CCO)c2)cc1 [pexmetinib] | 100% | 85.9% | 93.2% | 95.8% | 91% | 100% | 93.2% | 91.4% | 84.3% | 81.4% | 96.9% | 109% | 104% | 90.7% | 0.1% | 0 | 2.1 | 7 | > 10 µM | > 10 µM | 2.4 µM | 1.4 | 4.5 | 97.6% | 100% | 91.2% | 104% | 64.7% | 96.8% | 90.8% | 97.1% | 80.9% | 54.3% | –
OCc1ccccc1O[C@@H]1O[C@H](CO)[C@@H](O)[C@H](O)[C@H]1O [salicin] | – | – | – | – | – | – | – | – | – | – | – | – | – | – | – | 0 | – | 0 | – | – | – | 0 | 0 | – | – | – | – | – | – | – | – | – | – | –
Cc1ncc([N+](=O)[O-])n1CC(C)O (stereo not drawn) [secnidazole] | – | – | – | – | – | – | – | – | – | – | – | – | – | – | – | 0.4 | – | 0 | – | – | – | 0 | 0 | – | – | – | – | – | – | – | – | – | – | –
CO[C@H]1C[C@@H]2CC[C@@H](C)[C@@](O)(O2)C(=O)C(=O)N2CCCC[C@H]2C(=O)O[C@H]([C@H](C)C[C@@H]2CC[C@@H](O)[C@H](OC)C2)CC(=O)[C@H](C)/C=C(\C)[C@@H](O)[C@@H](OC)C(=O)[C@H](C)C[C@H](C)/C=C/C=C/C=C/1C [sirolimus] | 65.3% | 42.2% | 42.6% | 47.5% | 47.3% | 72.7% | 55.4% | 56.8% | 52% | 54.2% | 78.3% | 63.9% | 60.4% | 66.1% | 53.7% | 29 | 22.7 | 17.5 | < 0.001 µM | – | – | 17.5 | 21.2 | 92.3% | 69.4% | 58.6% | 55.9% | 60.6% | 77% | 57.9% | 60.3% | 55.8% | 59.9% | –
O=c1[nH]c(=O)n([C@H]2C[C@H](O)[C@@H](CO)O2)cc1C(F)(F)F [trifluridine] | 106% | 121% | 103% | 100% | 97.7% | 93.3% | 93.9% | 98.4% | 94% | 81.7% | 95.9% | 93.2% | 104% | 64.8% | 36.1% | 0 | 0.9 | 7.8 | > 10 µM | > 10 µM | 0.923 µM | 1.2 | – | 101% | 105% | 108% | 102% | 69.5% | – | – | – | – | – | –
